Assays:
[1] = system: A549 (p53 wild type); format: cell-based; conditions: p53 mRNA 1 μg/mL; metformin 4 or 6 mg/mL (FIG. 60)
Procedure: Experimental Methods. […] Then, the cell viabilities of these cells were measured by Alamar blue assay. […] The cells without receiving any treatments were labeled as the “Control”.

[2] = system: p53-null Hep3B tumor sections; experiment: In vivo mechanisms (IF, IHC, TUNEL, WB of tumor sections); design: species or system athymic nude mice; conditions: mouse
Procedure: In vivo mechanisms underlying the p53-mRNA NP-mediated sensitization to everolimus. […] The mice were sacrificed at 12, 24, 48, or 60 hours after the last injection of p53-mRNANPs, and the tumors were harvested for sections. Mice bearing p53-null Hep3B liver xenografts and intravenously injected with PBS were used as controls and sacrificed at 60 hours after the last injection. The expression of p53 and C-CAS3 was monitored via IF detection. Moreover, tumor sections from both the PBS group and p53-mRNANP group (60 hours after the last injection) were analyzed by IHC. The expression of p53, tumor cell apoptosis markers (BAX, C-CAS3), and proliferation markers (Ki67 and PCNA) was further assessed.
Western blot assay. Cells or dissected tumors in each group were lysed in a lysis buffer (1 mM EDTA, 20 mM Tris-HCl pH 7.6, 140 mM NaCl, 1% aprotinin, 1% NP-40, 1 mM phenylmethylsulphonyl fluoride, and 1 mM sodium vanadate), and supplemented with protease inhibitor cocktail (Cell Signaling Technology). Protein concentration was detected by a bicinchoninic acid (BCA) Protein Assay Kit (Pierce). […] The immunoreactive bands were detected with appropriate HRP-conjugated secondary antibodies. Band density was detected by enhanced chemiluminescence (ECL) detection system (Amersham/GE Healthcare). […]

[3] = system: p53-null Hep3B cells; experiment: Western blot, IF, TEM and GFP-LC3B CLSM analysis of p53, cell cycle, apoptosis, mTOR and autophagy pathways; format: cell-based, human
Procedure: (§1) Western blot assay. Cells or dissected tumors in each group were lysed in a lysis buffer (1 mM EDTA, 20 mM Tris-HCl pH 7.6, 140 mM NaCl, 1% aprotinin, 1% NP-40, 1 mM phenylmethylsulphonyl fluoride, and 1 mM sodium vanadate), and supplemented with protease inhibitor cocktail (Cell Signaling Technology). Protein concentration was detected by a bicinchoninic acid (BCA) Protein Assay Kit (Pierce). 25 μg of proteins were loaded on 6-12% precast gels (Invitrogen), and then transferred to Immobilon PVDF membranes (Bio-Rad, 162-0176 and 162-0177). The transferred membranes were blocked with 5% bovine serum albumin (BSA) in TBST (150 mM NaCl, 50 mM Tris-HCl at pH 7.4, and 0.1% Tween 20) for 1 hour at room temperature, and were further incubated with primary antibodies overnight at 4° C. The immunoreactive bands were detected with appropriate HRP-conjugated secondary antibodies. Band density was detected by enhanced chemiluminescence (ECL) detection system (Amersham/GE Healthcare).
Immunofluorescent staining and TEM detection. Cells or tumor tissues were fixed with 4% paraformaldehyde (Electron Microscopy Sciences) at room temperature for 15 min, followed by permeabilization in 0.2% Triton X-100-PBS for 10 min. Samples were further incubated with PBS blocking buffer (containing 2% BSA, 2% normal goat serum, and 0.2% gelatin) at room temperature for 30 min. Afterwards, the samples were incubated with primary antibody overnight at 4° C., washed with PBS, and incubated in goat anti-rat-Alexa Fluor 647 (Molecular Probes) in blocking buffer (1:1000 dilution) at room temperature for 60 min. Stained samples were washed with PBS, nuclei were stained using Hoechst 33342 (Molecular Probes-Invitrogen, H1399, 1:2000 dilution in PBS), and the samples were mounted on slides with Prolong Gold antifade mounting medium (Life Technologies). […]
(§2) Quantification of GFP-LC3B puncta. […] A confocal fluorescence microscope was used to observe the fluorescence of GFP-LC3B. To quantify the extent of autophagy, cells showing accumulation of GFP-LC3B in vacuoles or dots were counted. […]

[4] = system: H1299 cells; experiment: Apoptosis detection (Annexin V/PI, flow cytometry); format: cell-based, human; conditions: AnnV/PI co-staining
Procedure: (§3) Apoptosis and cell cycle detection in vitro. We used an FITC Annexin V/Propidium iodide (PI) apoptosis detection kit (BD Biosciences) to detect apoptosis. In brief, 1×10^6 cells were seeded into 6-well plates. After attachment overnight, cells were treated with p53-mRNA NPs for 24 hours before being mixed with 1 ml fresh medium and continuing to culture for another 24 h. All the attached cells together with the floating cells in the medium were harvested, washed with PBS twice, and dispersed in 1× binding buffer solution (ice-cold) at a concentration of 1×10^6 cells/ml. 5 μl of FITC Annexin V and 5 μl of PI were further mixed with 100 μl of the cell suspension. We then incubated the mixture at room temperature for 15 min in a dark environment and performed analysis using the FACS Calibur Flow Cytometer (BD Biosystems). Cells were incubated for 48 hours with empty NPs, naked p53-mRNA, or p53-mRNANPs washed in PBS and fixed with 70% ethanol overnight, then washed in PBS twice and incubated with PI for 30 minutes at 37° C.; cell-cycle fractions (percentage of cells with fractional DNA content in G1, S, and G2/M phases of the cycle) were estimated by flow cytometry and analyzed by Flowjo software.

[5] = system: Hep3B cells; experiment: Apoptosis detection (Annexin V/PI, flow cytometry); format: cell-based, human; conditions: AnnV/PI co-staining
Procedure: as §3

[6] = system: p53-null H1299 cells; experiment: Cell viability by AlamarBlue assay; format: cell-based, human
Procedure: (§4) Cell viability and transfection efficiency of EGFP-mRNA NPs. The p53-null Hep3B cells or H1299 cells were plated in 96-well plates at a density of 3×10^3 cells per well. […] Lip2k was used as a positive control for transfection efficiency comparison with the NPs. Cell viability was tested by AlamarBlue assay, which is a non-toxic assay that can continuously check real-time cell proliferation through a microplate reader (TECAN, Infinite M200 Pro). Absorbance was examined by a 96-well SpectraMax plate reader (Molecular Devices) at 545 nm and 590 nm. To measure the transection efficiency, cells were treated with EGFP-mRNA by NPs or Lip2k for 24 hours, detached with 2.5% EDTAtrypsin, and collected in PBS solution, followed by evaluating GFP expression using flow cytometry (BD Biosystems). The percentages of EGFP-positive cells were calculated and analyzed by Flowjo software.
(§5) Combination index (CI) calculation.

[7] = system: p53-null Hep3B cells; experiment: Cell viability by AlamarBlue assay; format: cell-based, human
Procedure: as §4, §5

[8] = system: p53-null H1299 cells; experiment: Western blot, IF, TEM and GFP-LC3B CLSM analysis of p53, apoptosis, mTOR and autophagy pathways; format: cell-based, human
Procedure: as §1
Immunofluorescent staining and TEM detection. […]
as §2

[9] = system: Hep3B-Luc orthotopic tumors; experiment: In vivo therapeutic efficacy in p53-null orthotopic HCC model (bioluminescence); design: species or system athymic nude mice; conditions: mRNA 750 μg/kg IV; everolimus 5 mg/kg oral; every three days, 4 rounds
Procedure: In vivo therapeutic efficacy in p53-null orthotopic HCC model. To establish the orthotopic HCC model, luciferase-expressing Hep3B (Hep3B-Luc) cells were used. Six-week-old female athymic nude mice were obtained from Zhejiang Medical Academy Animal Center. Animal studies were conducted following the protocol approved by the Institutional Animal Ethics Committee of Hangzhou Normal University. First, anterior abdominal exposure was made and a cotton swab with iodine volts was used to sterilize this area. A one-centimeter-long midline incision was made along the anterior abdominal wall below the xiphoid after anesthesia by isoflurane, and ˜5×10^6 p53-null Hep3B-Luc cells in 50 μl of PBS were injected into the left lobe of the livers of the athymic nude mice (30 in total). The injection depth was not deeper than 2 mm. The inner and outer layers of the abdominal cavity were sutured one by one after tumor cell inoculation. […] The first treatment was performed at Day 0. On Day 12, all the mice were sacrificed. Mice were monitored for tumor growth by bioluminescent in vivo imaging every 6 days (Day 0, 6, and 12). To do this, these mice were injected intraperitoneally with 150 mg/kg D-luciferin substrate (PerkinElmer, Catalog #122799) and imaged by an IVIS Lumina S5 (PerkinElmer) imaging system.

[10] = system: p53-null H1299 liver metastases; experiment: In vivo therapeutic efficacy in p53-null disseminated NSCLC model (liver metastases); design: species or system athymic nude mice; conditions: mRNA 750 μg/kg IV; everolimus 5 mg/kg oral; five rounds
Procedure: In vivo therapeutic efficacy in p53-null disseminated NSCLC model. To establish the experimental disseminated metastatic model, ˜1×10^6p53-null H1299 cells in 100 μl of PBS were injected via tail vein into female athymic nude mice. […] The first treatment was performed at Day 0. On Day 15, all the mice were sacrificed, and one liver was randomly selected from each group for H&E staining. The liver section from each group was divided into four regions for calculation of the metastasis numbers (FIG. 55).

[11] = system: p53-null Hep3B xenografts; experiment: In vivo therapeutic efficacy in p53-null HCC xenograft tumor model; design: species or system athymic nude mice; conditions: mRNA 750 μg/kg IV; everolimus 5 mg/kg oral; every three days, six treatments
Procedure: In vivo therapeutic efficacy in p53-null HCC xenograft tumor model. […] The day that first treatment was performed was designated as Day 0. […] The body weights of all the mice were also recorded over this period.
as §5

[12] = increasing everolimus concentrations

Row | Structure (SMILES) | cells dead / killed [1] | autophagy in tumors (LC3B-2 relative to actin, BECN1; WB) [2] | autophagy activation (WB, autophagosomes by TEM, GFP-LC3B by CLSM) [3] | LC3B-2 and LC3B-2/actin ratio (WB) ([3]; increase of everolimus concentration) | mTOR pathway targets (p-mTOR and p-p70S6K; WB) [3, 12] | cell apoptosis [4] | cell apoptosis [5] | viability at 0.016 µM ([6]; Homo sapiens, NCI-H1299, mRNA 0.415 μg/ml, everolimus 16 nM) [%] | cells still alive ([6]; at 64 nM) | cell viability [6, 12] | viability at 0.032 µM ([7]; Homo sapiens, Hep3B, mRNA 0.415 μg/ml, everolimus 32 nM) [%] | cells still alive ([7]; at 64 nM) | cell viability [7, 12] | autophagy activation (WB, autophagosomes by TEM, GFP-LC3B by CLSM) [8] | mTOR pathway targets (p-mTOR and p-p70S6K; WB) [8, 12] | orthotopic tumor growth / burden (bioluminescence) [9] | metastatic nodules in the liver [10] | tumor growth [11]
1 | N.N.[Cl][Pt][Cl] [cisplatin] | less than 50% |  |  |  |  |  |  |  |  |  |  |  |  |  |  |  |  | 
2 | CO[C@H]1C[C@@H]2CC[C@@H](C)[C@@](O)(O2)C(=O)C(=O)N2CCCC[C@H]2C(=O)O[C@H]([C@H](C)C[C@@H]2CC[C@@H](OCCO)[C@H](OC)C2)CC(=O)[C@H](C)/C=C(\C)[C@@H](O)[C@@H](OC)C(=O)[C@H](C)C[C@H](C)/C=C/C=C/C=C/1C [everolimus, Everolimus] |  | induced autophagy | activation of autophagy | upregulation of LC3B-2 and higher LC3B-2/actin ratios | substantially blocked | moderate apoptotic cell death | moderate apoptotic cell death | > 80 | over 50% | no significant decrease in cell viability | ~70 | over 50% | no significant decrease in cell viability | activation of autophagy | substantially blocked | somewhat inhibited the growth of orthotopic tumors | moderate effects | moderate anti-tumor activity

— US20220016271A1, “METHODS FOR TREATING CANCER” (The Brigham and Women`s Hospital, Inc., priority 2018, published 2022)
